# In US20020107250A1, “Rapid-onset formulation of a selective cyclooxygenase-2 inhibitor” (priority 2000, published 2002):
# Assay: Solubility of celecoxib and valdecoxib in various solvent liquids
# Assay type: physicochemical
# Procedure: Aliquots of a solvent liquid were then added dropwise in approximately 100 mg increments to the solid sample. The resulting mixture was vortexed and/or sonicated between aliquot additions. […] Solubility values preceded by the<symbol denote that, at the particular concentration shown, the mixture was still cloudy, i.e., not all of the drug was fully in dissolved form.
Solubility (solvent liquid: polyethylene glycol 400),Solubility (solvent liquid: propylene glycol),Solubility in a DGME/water mixture compared with a PEG-400/water mixture (same ratio of mixture ingredients),Solubility (solvent liquid: Capmul MCM (caprylic/capric mono- and diglycerides)),Solubility (solvent liquid: Labrasol/DGME/propylene glycol laurate 40:40:20 w/w),Solubility (solvent liquid: Labrasol/DGME/propylene glycol laurate 45:45:10 w/w),Solubility (solvent liquid: Miglyol 812 (caprylic/capric triglycerides)),Solubility (solvent liquid: Tagat TO (polyoxyethylene glyceryl trioleate)),Solubility (solvent liquid: Tagat TO/Capmul MCM 1:1 w/w),Compound,Advantage in solubility for DGME over propylene glycol (DGME versus propylene glycol)
50 to 85 mg/g,10 to 20 mg/g,–,–,–,–,–,–,–,"Cc1onc(-c2ccccc2)c1-c1ccc(S(N)(=O)=O)cc1 [valdecoxib, 4-[5-methyl-3-phenylisoxazol-4-yl]benzenesulfonamide]",approximately tenfold advantage in solubility
–,–,significantly higher,19 to 21 mg/g,288 to 297 mg/g,313 to 325 mg/g,6 to 12 mg/g,24 to 40 mg/g,34 to 52 mg/g,"Cc1ccc(-c2cc(C(F)(F)F)nn2-c2ccc(S(N)(=O)=O)cc2)cc1 [celecoxib, 4-[5-(4-methylphenyl)-3-(trifluoromethyl)-1H-pyrazol-1-yl]benzenesulfonamide]",–
